Values after ≈ are worked out from the molar mass of the structure shown. Like-named read-outs stand apart in the source and are kept apart here.
Columns and labels:
Experiment in all cases: Broth dilution MIC
Format in all cases: cell-based
CNS GC 4537 = conditions: CNS GC 4537; Mueller-Hinton broth, 18 hours at 35° C.; read-out: Antimicrobial Activity (MIC)
Protocol: (§1) The in vitro antibacterial activity of Example 1 through Example 20 is determined against a spectrum of Gram-positive and Gram-negative bacteria by a standard broth dilution method. Serial dilution of the compounds are made in Mueller-Hinton broth and inoculated with a bacterial suspension. The lowest concentration of compound that inhibited the growth of a bacterial strain after 18 hours of incubation at 35° C. is reported as the minimal inhibitory concentration (MIC) for that strain.

CNS GC 4538 = conditions: CNS GC 4538; Mueller-Hinton broth, 18 hours at 35° C.; read-out: Antimicrobial Activity (MIC)
Protocol: as §1

CNS GC 4547 = conditions: CNS GC 4547; Mueller-Hinton broth, 18 hours at 35° C.; read-out: Antimicrobial Activity (MIC)
Protocol: as §1

E. cloacae GC 3783 = conditions: Enterobacter cloacae, GC3783; E. cloacae GC 3783; Mueller-Hinton broth, 18 hours at 35° C.; read-out: Antimicrobial Activity (MIC)
Protocol: as §1

E. coli GC 2203 = conditions: Escherichia coli, GC2203; E. coli GC 2203; Mueller-Hinton broth, 18 hours at 35° C.; read-out: Antimicrobial Activity (MIC)
Protocol: as §1

E. coli GC 3226 = conditions: Escherichia coli, GC3226; E. coli GC 3226; Mueller-Hinton broth, 18 hours at 35° C.; read-out: Antimicrobial Activity (MIC)
Protocol: as §1

E. coli GC 4559 = conditions: Escherichia coli, GC4559; E. coli GC 4559; Mueller-Hinton broth, 18 hours at 35° C.; read-out: Antimicrobial Activity (MIC)
Protocol: as §1

E. coli GC 4560 = conditions: Escherichia coli, read-out: Antimicrobial Activity (MIC)
Protocol: as §1

E. faecalis GC 2242 = conditions: Enterococcus faecalis, GC2242; E. faecalis GC 2242; Mueller-Hinton broth, 18 hours at 35° C.; read-out: Antimicrobial Activity (MIC)
Protocol: as §1

E. faecalis GC 4555 = conditions: Enterococcus faecalis, GC4555; E. faecalis GC 4555; Mueller-Hinton broth, 18 hours at 35° C.; read-out: Antimicrobial Activity (MIC)
Protocol: as §1

E. faecalis GC 842 = conditions: Enterococcus faecalis, GC842; E. faecalis GC 842; Mueller-Hinton broth, 18 hours at 35° C.; read-out: Antimicrobial Activity (MIC)
Protocol: as §1

K. pneumoniae GC 4534 = conditions: Klebsiella pneumoniae, GC4534; K. pneumoniae GC 4534; Mueller-Hinton broth, 18 hours at 35° C.; read-out: Antimicrobial Activity (MIC)
Protocol: as §1

M. morganii GC 4531 = conditions: Morganella morganii, GC4531; M. morganii GC 4531; Mueller-Hinton broth, 18 hours at 35° C.; read-out: Antimicrobial Activity (MIC)
Protocol: as §1

P. aeruginosa GC 2214 = conditions: Pseudomonas aeruginosa, GC2214; P. aeruginosa GC 2214; Mueller-Hinton broth, 18 hours at 35° C.; read-out: Antimicrobial Activity (MIC)
Protocol: as §1

P. aeruginosa GC 4532 = conditions: Pseudomonas aeruginosa, GC4532; P. aeruginosa GC 4532; Mueller-Hinton broth, 18 hours at 35° C.; read-out: Antimicrobial Activity (MIC)
Protocol: as §1

P. rettgeri GC 4530 = conditions: Providencia rettgeri, GC4530; P. rettgeri GC 4530; Mueller-Hinton broth, 18 hours at 35° C.; read-out: Antimicrobial Activity (MIC)
Protocol: as §1

S. aureus GC 1131 = conditions: Staphylococcus aureus, GC1131; S. aureus GC 1131; Mueller-Hinton broth, 18 hours at 35° C.; read-out: Antimicrobial Activity (MIC)
Protocol: as §1

S. aureus GC 2216 = conditions: Staphylococcus aureus, GC2216; S. aureus GC 2216; Mueller-Hinton broth, 18 hours at 35° C.; read-out: Antimicrobial Activity (MIC)
Protocol: as §1

S. aureus GC 4536 = conditions: Staphylococcus aureus, GC4536; S. aureus GC 4536; Mueller-Hinton broth, 18 hours at 35° C.; read-out: Antimicrobial Activity (MIC)
Protocol: as §1

S. marcescens GC 4077 = conditions: Serratia marcescens, GC4077; S. marcescens GC 4077; Mueller-Hinton broth, 18 hours at 35° C.; read-out: Antimicrobial Activity (MIC)
Protocol: as §1

[1] = GC4560, E. coli GC 4560, Mueller-Hinton broth, 18 hours at 35° C.

SMILES	MIC (CNS GC 4537) [µg/mL]	MIC (CNS GC 4538) [µg/mL]	MIC (CNS GC 4547) [µg/mL]	MIC (E. cloacae GC 3783) [µg/mL]	MIC (E. coli GC 2203) [µg/mL]	MIC (E. coli GC 3226) [µg/mL]	MIC (E. coli GC 4559) [µg/mL]	MIC (E. coli GC 4560; GC4560, 18 h) [µg/mL]	MIC (E. faecalis GC 2242) [µg/mL]	MIC (E. faecalis GC 4555) [µg/mL]	MIC (E. faecalis GC 842) [µg/mL]	MIC (K. pneumoniae GC 4534) [µg/mL]	MIC (M. morganii GC 4531) [µg/mL]	MIC (P. aeruginosa GC 2214) [µg/mL]	MIC (P. aeruginosa GC 4532) [µg/mL]	MIC (P. rettgeri GC 4530) [µg/mL]	MIC (S. aureus GC 1131) [µg/mL]	MIC (S. aureus GC 2216) [µg/mL]	MIC (S. aureus GC 4536) [µg/mL]	MIC (S. marcescens GC 4077) [µg/mL]	other results
CO[C@H]1C(O[C@H](C(C(=O)O)N(CCCCCCCCCCCC[N+]2(C)CCOCC2)CCCNC(=O)C(NC(=O)C(NC(=O)NC(C(=O)O)C(C)C)C2CCNC(=N)N2)C(O)C(C)C)[C@H]2O[C@@H](n3ccc(=O)[nH]c3=O)[C@H](O)[C@@H]2O)O[C@H](CN)[C@@H]1O (stereo partly drawn) [Example 10, 4-[13-((2R)-2-{[(3R,4S,5R)-5-(Aminomethyl)-4-hydroxy-3-methoxytetrahydro-2-furanyl]oxy}-1-carboxy-2-{(2S,3S,4R,5R)-5-[2,4-dioxo-3,4-dihydro-1 (2H)-pyrimidinyl]-3,4-dihydroxytetrahydro-2-furanyl}ethyl)-26-carboxy-19-(1-hydroxy-2-methylpropyl)-22-(2-iminohexahydro-4-pyrimidinyl) -27-methyl-18,21,24-trioxo-13,17,20,23,25-pentaazaoctacos-1-yl]-4-methylmorpholin-4-ium]	> 32	> 32	> 32	> 32	> 32	> 32	> 32	16	> 32	> 32	> 32	> 32	> 32	> 32	> 32	> 32	> 32	> 32	> 32	> 32	
CCCCCCCCCCCCNC(=O)NC[C@H]1OC(O[C@H](C2C(=O)N(CCCCCCCCCCCC)C(=O)N2CCCNC(=O)C(NC(=O)C(NC(=O)NC(C(=O)O)C(C)C)C2CCNC(=N)N2)C(O)C(C)C)[C@H]2O[C@@H](n3ccc(=O)[nH]c3=O)[C@H](O)[C@@H]2O)[C@H](OC)[C@H]1O (stereo partly drawn) [Example 15, 14-[5-((R)-{(2S,3S,4R,5R)-5-[2,4-Dioxo-3,4-dihydro-1 (2H)-pyrimidinyl]-3,4-dihydroxytetrahydro-2-furanyl}{[(3R,4S,5R)-5-({[(dodecylamino)carbonyl]amino}methyl)-4-hydroxy-3-methoxytetrahydro-2-furanyl]oxy}methyl)-3-dodecyl-2,4-dioxo-1-imidazolidinyl]-9-(1-hydroxy-2-methylpropyl)-6-(2-iminohexahydro-4-pyrimidinyl)-2-isopropyl-4,7,10-trioxo-3,5,8,11-tetraazatetradecan-1-oic Acid]	> 32	> 32	> 32	> 32	> 32	> 32	> 32		> 32	> 32	> 32	> 32	> 32	> 32	> 32	> 32	> 32	> 32	> 32	> 32	MIC (E. coli GC 4560; [1]): > 32 µg/mL
CCCCCCNC(=O)NC[C@H]1OC(O[C@H](C2C(=O)N(CCCCCC)C(=O)N2CCCNC(=O)C(NC(=O)C(NC(=O)NC(C(=O)O)C(C)C)C2CCNC(=N)N2)C(O)C(C)C)[C@H]2O[C@@H](n3ccc(=O)[nH]c3=O)[C@H](O)[C@@H]2O)[C@H](OC)[C@H]1O (stereo partly drawn) [Example 14, 14-[5-((R)-{(2S,3S,4R,5R)-5-[2,4-Dioxo-3,4-dihydro-1 (2H)-pyrimidinyl]-3,4-dihydroxytetrahydro-2-furanyl}{[(3R,4S,5R)-5-({[(hexylamino)carbonyl]amino}methyl)-4-hydroxy-3-methoxytetrahydro-2-furanyl]oxy}methyl)-3-hexyl-2,4-dioxo-1-imidazolidinyl]-9-(1-hydroxy-2-methylpropyl)-6-(2-iminohexahydro-4-pyrimidinyl)-2-isopropyl-4,7,10-trioxo-3,5,8,11-tetraazatetradecan-1-oic Acid]	32 (≈ 27.1 µM)	32 (≈ 27.1 µM)	16 (≈ 13.5 µM)	> 32	> 32	> 32	> 32		32 (≈ 27.1 µM)	> 32	> 32	> 32	> 32	> 32	> 32	> 32	32 (≈ 27.1 µM)	32 (≈ 27.1 µM)	32 (≈ 27.1 µM)	> 32	MIC (E. coli GC 4560; [1]): 32 µg/mL (≈ 27.1 µM)
CO[C@H]1C(O[C@H](C(NCCCNC(=O)C(NC(=O)C(NC(=O)NC(C(=O)O)C(C)C)C2CCNC(=N)N2)C(O)C(C)C)C(=O)O)[C@H]2O[C@@H](n3ccc(=O)[nH]c3=O)[C@H](O)[C@@H]2O)O[C@H](CNCc2ccc(-c3ccccc3)cc2)[C@@H]1O (stereo partly drawn) [Example 19A, 16-((R)-[((3R,4S,5R)-5-{[([1,1′-Biphenyl]-4-ylmethyl)amino]methyl}-4-hydroxy-3-methoxytetrahydro-2-furanyl)oxy]{(2S,3S,4R,5R)-5-[2,4-dioxo-3,4-dihydro-1 (2H)-pyrimidinyl]-3,4-dihydroxytetrahydro-2-furanyl}methyl)-9-(1-hydroxy-2-methylpropyl)-6-(2-iminohexahydro-4-pyrimidinyl)-2-isopropyl-4,7,10-trioxo-3,5,8,11,15-pentaazaheptadecane-1,17-dioic Acid]	> 32	> 32	> 32	> 32	> 32	> 32	> 32	16 (≈ 14.4 µM)	> 32	> 32	> 32	> 32	> 32	> 32	> 32	> 32	> 32	> 32	> 32	> 32	
CCCCCCCCCCCCN(CCCNC(=O)C(NC(=O)C(NC(=O)NC(C(=O)O)C(C)C)C1CCNC(=N)N1)C(O)C(C)C)C(C(=O)O)[C@@H](OC1O[C@H](CN)[C@H](O)[C@H]1OC)[C@H]1O[C@@H](n2ccc(=O)[nH]c2=O)[C@H](O)[C@@H]1O (stereo partly drawn) [Example 7, 16-((R)-{[(3R,4S,5R)-5-(Aminomethyl)-4-hydroxy-3-methoxytetrahydro-2-furanyl]oxy}{(2S,3S,4R,5R)-5-[2,4-dioxo-3,4-dihydro-1 (2H)-pyrimidinyl]-3,4-dihydroxytetrahydro-2-furanyl}methyl)-15-dodecyl-9-(1-hydroxy-2-methylpropyl)-6-(2-iminohexahydro-4-pyrimidinyl)-2-isopropyl-4,7,10-trioxo-3,5,8,11,15-pentaazaheptadecane-1,17-dioic Acid]	> 32	> 32	> 32	> 32	> 32	> 32	> 32	16 (≈ 14.4 µM)	> 32	> 32	> 32	> 32	> 32	> 32	> 32	> 32	> 32	> 32	> 32	> 32	
